{
  "source": "patent US20240207258A1",
  "about": "“HETEROCYCLIC PDK1 INHIBITORS FOR USE TO TREAT CANCER” (Viracta Therapeutics, Inc., priority 2015, published 2024)",
  "key": {"P-PDK1 [1]": {"tested_on": "P-PDK1", "assay": "Western blot, PDK1 phosphorylation in MV4-11 cells", "assay_type": "cell-based, human", "description": "(§1) For phosphoprotein analyses, cells were seeded into 10 cm petri dishes (10×10^6 cells/dish) in media supplemented with 10% FBS and penicillin/streptomycin. After cells recovered for 1 hr at 37° C., compounds were added in DMSO (0.1% final) and incubated for 4 or 24 hr at 37° C. Cells were then harvested by centrifugation and washed with cold PBS. Cell pellets were resuspended in cell extraction buffer (Invitrogen) supplemented with 2×Halt™ protease and phosphatase inhibitor cocktail (Thermo Scientific), 2 mM sodium orthovanadate, 10 mM EDTA and 4 mM PMSF. Samples were lysed by sonication and incubated on ice for 30 min. Cell debris was removed by centrifugation and protein concentrations were determined using the BCA Protein Assay Kit (Pierce). The clarified lysate was diluted in LDS sample buffer with reducing agent (Life Technologies). […] Gels were run at 110 V and proteins were transferred to a PVDF membrane. Membranes were blocked in TBS blocking buffer (Li-Cor Biosciences) for 1 hr. Primary antibodies (Cell Signaling, Sant Cruz Biotechnology) were added (1:1,000 dilution) in blocking buffer with 0.1% Tween-20 and 1:20,000 dilution of β-actin antibody and incubated for 14 hr at 4° C. Blots were washed in TBS-T. Label-conjugated goat anti-rabbit secondary antibody (IRdye® 800CW; Li-Cor Biosciences) was added in blocking buffer with 0.1% Tween-20 and 0.02% SDS and incubated for 1 hr. After washing in TBS-T followed by TBS, membranes were scanned on an Odyssey imaging system (Li-Cor Biosciences). Bands were quantitated using ImageJ."}, "P-RSK2 [2]": {"tested_on": "P-RSK2", "assay": "Western blot, RSK2 phosphorylation in MV4-11 cells", "assay_type": "cell-based, human", "description": "as §1"}, "MV4-11": {"tested_on": "MV4-11", "assay": "MTS cell proliferation assay, MV4-11", "assay_type": "cell-based, human", "details": "Homo sapiens; MV4-11, 72 hr; read-out: MTS proliferation assay", "description": "Cell proliferation was measured using the CellTiter 96 Aqueous Non-Radioactive Cell Proliferation Assay (Promega). […] MTS is bioreduced by cells into a formazan product that is soluble in tissue culture medium. The absorbance of the formazan product at 490 nm can be measured directly from assay plates without additional processing. The quantity of formazan product as measured by the amount of 490 nm absorbance is directly proportional to the number of living cells in culture. Cells were seeded into 96-well or 384-well clear plates in a volume of 200 μL (96-well) or 50 μL (384-well) at optimized densities ranging from 1,000 to 40,000 cells per well for 96-well plates or 1,200 to 25,000 cells per well for 384-well plates depending on cell-line. After 4-6 hr recovery, serially diluted compounds in DMSO were added to the cells using (0.1% v/v final DMSO concentration). Cells were then grown at 37° C. in a humidified incubator with 5% CO2 for 72 hr. A 20:1 [3-(4,5-dimethylthiazol-2-yl)-5-(3-carboxymethoxyphenyl)-2-(4-sulfophenyl)-2H-tetrazolium](MTS):phenazine methosulfate (PMS) solution in DPBS was made immediately before use, added to each well, and cells were incubated for 1.5 hr at 37° C. The absorbance at 490 nm was then measured using a platereader. Absorbance values were normalized as percent of control (cells incubated in the presence of 0.1% v/v DMSO). Sigmoidal dose-response curves were plotted using log(inhibitor) vs. response—Variable slope (four parameters) model with a top value constrained to 100% (GraphPad Prism version 6.00 for Windows, GraphPad Software, La Jolla California USA). […] To determine potential of compounds of the invention to affect viability of hematological cancers, cell lines representing various tumor types were selected and tested. […] In addition, two murine cell lines were tested: A20 […]."}, "P-RSK2 [3]": {"tested_on": "P-RSK2", "assay": "Western blot, RSK2 phosphorylation in A20 cells", "assay_type": "cell-based, murine", "details": "Mus musculus; A20, 300 nM", "description": "(§2) For phosphoprotein analyses, cells were seeded into 10 cm petri dishes (10×10^6 cells/dish) in media supplemented with 10% FBS and penicillin/streptomycin. After cells recovered for 1 hr at 37° C., compounds were added in DMSO (0.1% final) and incubated for 4 or 24 hr at 37° C. Cells were then harvested by centrifugation and washed with cold PBS. Cell pellets were resuspended in cell extraction buffer (Invitrogen) supplemented with 2×Halt™ protease and phosphatase inhibitor cocktail (Thermo Scientific), 2 mM sodium orthovanadate, 10 mM EDTA and 4 mM PMSF. Samples were lysed by sonication and incubated on ice for 30 min. Cell debris was removed by centrifugation and protein concentrations were determined using the BCA Protein Assay Kit (Pierce). The clarified lysate was diluted in LDS sample buffer with reducing agent (Life Technologies). After heating to 70° C. samples were cooled and loaded onto 4-12% Bis-Tris gels (Life Technologies) at 50 μg/well. Gels were run at 110 V and proteins were transferred to a PVDF membrane. Membranes were blocked in TBS blocking buffer (Li-Cor Biosciences) for 1 hr. Primary antibodies (Cell Signaling, Sant Cruz Biotechnology) were added (1:1,000 dilution) in blocking buffer with 0.1% Tween-20 and 1:20,000 dilution of β-actin antibody and incubated for 14 hr at 4° C. […] Bands were quantitated using ImageJ."}, "[4]": {"tested_on": "PDK1 and RSK2 phosphorylation", "assay": "Western blot pathway modulation, summary over cell lines", "assay_type": "cell-based", "description": "as §2, with “After heating to 70° C. samples were cooled and loaded onto 4-12% Bis-Tris gels (Life Technologies) at 50 μg/well.” left out"}, "P-PDK1 [5]": {"tested_on": "P-PDK1", "assay": "Western blot, PDK1 phosphorylation in A20 cells", "assay_type": "cell-based, murine", "description": "as §2, with “After heating to 70° C. samples were cooled and loaded onto 4-12% Bis-Tris gels (Life Technologies) at 50 μg/well.” left out"}, "P-RSK2 [6]": {"tested_on": "P-RSK2", "assay": "Western blot, RSK2 phosphorylation in C1498 cells", "assay_type": "cell-based, murine", "details": "C1498, 30-100 nM range", "description": "as §2, with “After heating to 70° C. samples were cooled and loaded onto 4-12% Bis-Tris gels (Life Technologies) at 50 μg/well.” left out"}, "pRSK2": {"tested_on": "pRSK2", "assay": "Western blot, RSK2 phosphorylation in KG-1 cells", "assay_type": "cell-based", "details": "Homo sapiens; KG-1, 100 nM; read-out: inhibition of pRSK2 levels", "description": "as §2"}, "[7]": {"details": "Homo sapiens, MV4-11, FIG. 6C, 30 nM, 4 hrs"}},
  "data": [
    {"smiles": "CNc1n[nH]c2ncc(-c3ccc(CNc4ncc(C#N)nc4C(=O)N[C@@H](C)c4ccc(F)c(F)c4)cc3)cc12", "note": "[Compound 2, 6-Cyano-3-[4-(3-methylamino-1H-pyrazolo[3,4-b]pyridin-5-yl)-benzylamino]-pyrazine-2-carboxylic acid [1-(3,4-difluoro-phenyl)-ethyl]-amide]", "values": [
      {"measurement": "inhibition at 0.03 µM", "setting": "P-PDK1 [1]; [7]", "value": 40, "unit": "%"},
      {"measurement": "inhibition at 0.1 µM", "setting": "P-PDK1 [1]; Homo sapiens, MV4-11, 100 nM", "value": 90, "unit": "%"},
      {"measurement": "fold decrease in PDK1 phosphorylation between 4 hr and 24 hr exposure", "setting": "P-PDK1 [1]; MV4-11, 30 nM", "value": 5, "unit": "fold"},
      {"measurement": "inhibition at 0.03 µM", "setting": "P-RSK2 [2]; [7]", "value": 90, "unit": "%"},
      {"measurement": "inhibition at 0.1 µM", "setting": "P-RSK2 [2]; Homo sapiens, MV4-11, 100 nM", "value": "> 95", "unit": "%"},
      {"measurement": "inhibition of RSK2 phosphorylation", "setting": "P-RSK2 [2]; MV4-11, 30 nM, various times", "value": "potent and time-independent"},
      {"measurement": "EC50", "setting": "MV4-11", "value": 7, "unit": "nM"},
      {"measurement": "inhibition at 0.3 µM", "setting": "P-RSK2 [3]", "value": "> 90", "unit": "%"},
      {"measurement": "fold more inhibition of PDK1 phosphorylation after 24 hours than 4 hours", "setting": "[4]", "value": "2-5 fold"},
      {"measurement": "fold more potent than GSK-2334470 in inhibiting phosphorylation of both PDK1 and RSK2", "setting": "[4]; MV4-11, FIG. 6", "value": 10, "unit": "fold"},
      {"measurement": "P-PDK inhibition plateau", "setting": "P-PDK1 [5]", "value": 70, "unit": "%"},
      {"measurement": "P-RSK2 inhibition", "setting": "P-RSK2 [6]", "value": "> 90", "unit": "%"}
    ]},
    {"smiles": "C[C@H](NC(=O)c1nc(C#N)cnc1NCc1ccc(-c2cnc3[nH]nc(N)c3n2)cc1)c1ccc(F)c(F)c1", "note": "[Compound 1, 3-[4-(3-Amino-1H-pyrazolo[3,4-b]pyrazin-5-yl)-benzylamino]-6-cyano-pyrazine-2-carboxylic acid [1-(3,4-difluoro-phenyl)-ethyl]-amide]", "values": [
      {"measurement": "EC50", "setting": "MV4-11", "value": 5, "unit": "nM"},
      {"measurement": "inhibition at 0.1 µM", "setting": "pRSK2", "value": "> 80", "unit": "%"}
    ]}
  ]
}
